These results are taken from PubChem BioAssay AID2454 (Broad Institute, 2010).

This experiment relates to H4 cells, SNCA 5'UTR luciferase reporter translation. Briefly: inhibitors of SNCA 5'UTR-driven translation, confirmation, luminescence, H4 neuroglioblastoma cells, dose confirmation (AID 2454).

As usually defined, the EC50 is the concentration needed to bring the measured effect to its halfway point.

Consider `COc1ccc(O)c2c(=O)c3c(OC)cc4c(c3oc12)C1C=COC1O4` (stereo unspecified), for which the EC50 was 569 nM.
